Experimental data reported in patent US4861778A, “2,3-dihydrophthalazine-1,4-diones” (priority 1986, dated 1989).
Like-named read-outs stand apart in the source and are kept apart here.

Key:
[1] = test system: serum cholesterol and serum triglyceride; assay: Hypolipidemic activity of 2,3-dihydrophthalazine-1,4-diones in normal male mice (Example 11, Table II); type: in vivo, CF1 male mice; conditions: Mus musculus, ip, CF1 male mice, 20 mg/kg/day intraperitoneally
Experimental: Hypolipidemic Activity of 2,3-Dihydrophthalazine-1,4-Diones in Normal Male Mice
Each of the prepared compounds was administered intraperitoneally, in a dosage of 20 milligrams per kilogram of body weight per day, to a group of six CF1 male mice, each weighing approximately 25 grams, for 16 days. On Days 9 and 16 blood was obtained from each of the tested mice by tail vein bleeding. The blood serum so obtained was separated by centrifugation for three minutes. […] Serum triglyceride levels were obtained on Day 16 by use of the Bio-Dynamics/bm Triglyceride Kit.
In addition to the above-described treated mice, an untreated control group of six mice were similarly tested on Days 9 and 16 to determine their serum cholesterol and serum triglyceride blood levels.

[2] = test system: serum cholesterol and serum triglycerides; assay: Effect of Compound 1 on hyperlipidemic mice (Example 14); type: in vivo, CF1 male mice; conditions: diet-induced hyperlipidemic CF1 mice, 20 mg/kg daily, 12 days
Experimental: Effect of Compound 1 on Hyperlipidemic Mice
A group of CF1 male mice were fed a diet resulting in induced hyperlipidemia.
These hyperlipidemic mice were treated for 12 days with Compound 1 (2,3-dihydrophthalazine-1,4-dione) at a daily dosage of 20 mg/kg. At the conclusion of this treatment regime the average serum cholesterol level of the hyperlipidemic mice was lowered to 221 mg percent, a 41 percent reduction.

[3] = test system: plasma lipoprotein fractions; assay: Determination of plasma lipoprotein fractions in rats (Example 13, Table IV); type: in vivo, Sprague-Dawley male rats; conditions: 10 mg/kg/d orally
Description: Determination of Plasma Lipoprotein Fractions in Rats
Sets of six normal Sprague-Dawley male rats, each weighing approximately 350 grams, were orally treated with 10 milligrams per kilogram of body weight per day of 2,3-dihydrophthalazine-1,4-dione (Comp. No. 1) by intubation needle. In addition, a set of six Sprague-Dawley male rats of approximately the same weight were similarly treated except that the administered drug was the inert carrier, the 1 percent aqueous solution of CMC.
Blood was collected from all the rats participating in the test from the abdominal vein and lipoprotein fractions were obtained by the method of Hatch and Lees (Adv. Lipid Res., Vol. 6, 1 [1968]) and Havel et al. (J. Clin. Invest., Vol. 34, 1345 [1955]). Each of the fractions were analyzed for cholesterol in accordance with the Ness et al. test, for triglyceride level (Bio-Dynamic/bmc Triglyceride Kit), neutral lipids, in accordance with the test of Bragdon (J. Biol. Chem., Vol. 190, 513 [1951]), phospholipids, in accordance with the Stewart and Hendry procedure (Biochem. J., Vol. 29, 1683 [1935]) and protein levels, in accordance with the procedure of Lowry et al. (J. Biol. Chem., Vol. 193, 265 [1951]).

[4] = test system: serum cholesterol and serum triglyceride; assay: Hypolipidemic effect of Compound No. 1 in normal CF1 male mice, dose response (Example 12, Table III); type: in vivo
Experimental: The hypolipidemic effects of a preferred compound within the scope of the present invention, 2,3-dihydrophthalazine-1,4-dione (Compound No. 1), was tested in accordance with the procedure set forth in Example 11. However, in addition to testing normal CF1 male mice at 20 mg/kg/d ip, sets of six of these mice were treated with dosages of 10, 40 and 60 mg/kg/d. A set of six mice were again treated with a 1 percent aqueous solution of CMC, the carrier for the active agent, as a control.
(§1) In Table III the results are reported as percent of serum cholesterol and serum triglyceride based on the concentration of these materials found in the control, the rats treated with the 1 percent aqueous solution of CMC.

[5] = test system: serum cholesterol and serum triglyceride; assay: Hypolipidemic effect of Compound No. 1 in normal Sprague-Dawley male rats (Example 12, Table III); type: in vivo; conditions: 10 mg/kg/day orally
Experimental: In addition, rats were treated with Compound No. 1. The rats used in the test were normal Sprague-Dawley male rats, each weighting approximately 350 grams. The rats, tested in groups of six, were orally administered 10 mg/kg/d of Compound 1 in an aqueous solution of 1 percent CMC. The treatment of 10 milligrams per kilogram of body weight per day continued for 14 days. On Days 7 and 14 blood was obtained from each of the rats by tail vein bleeding. The blood obtained was separated centrifugation for three minutes. Serum cholesterol and serum triglyceride blood levels were determined in accordance with the procedure of Example 1.
as §1

For `O=c1[nH][nH]c(=O)c2ccccc12` [Compound 1, 2,3-Dihydrophthalazine-1,4-Dione], the response vs control in vivo at 20 mg/kg/day ([1]; 216 h, Day 9, read-out: Serum Cholesterol Day 9, percent control ± standard deviation) was 53 ± 4%, the response vs control in vivo at 20 mg/kg/day ([1]; 384 h, Day 16, read-out: Serum Cholesterol Day 16, percent control ± standard deviation) was 49 ± 5% and the response vs control in vivo at 20 mg/kg/day ([1]; 384 h, Day 16, read-out: Serum Triglyceride Day 16, percent control ± standard deviation) was 57 ± 4%. The “reduction of serum cholesterol level” value [2] was 41%, the “reduction of serum triglycerides level” value [2] was 56% and the “average serum triglycerides level after treatment” value ([2]; initial 367 mg/dl) was 161 mg/dL. The “average serum cholesterol level after treatment” value ([2]; initial 375 mg percent) was 221 mg percent, the “HDL cholesterol, percent control ± standard deviation” value ([3]; HDL, column 1) was 107 ± 3 PERCENT CONTROL and the “HDL triglyceride, percent control ± standard deviation” value ([3]; HDL, column 2) was 42 ± 4 PERCENT CONTROL. For the same molecule, the “HDL neutral lipids, percent control ± standard deviation” value ([3]; HDL, column 3) was 86 ± 3 PERCENT CONTROL, the “HDL phospholipids, percent control ± standard deviation” value ([3]; HDL, column 4) was 42 ± 6 PERCENT CONTROL and the “HDL protein, percent control ± standard deviation” value ([3]; HDL, column 5) was 93 ± 7 PERCENT CONTROL. The “LDL cholesterol, percent control ± standard deviation” value ([3]; LDL, column 1) was 35 ± 6 PERCENT CONTROL, the “LDL triglyceride, percent control ± standard deviation” value ([3]; LDL, column 2) was 94 ± 7 PERCENT CONTROL and the “LDL neutral lipids, percent control ± standard deviation” value ([3]; LDL, column 3) was 88 ± 6 PERCENT CONTROL. For the same molecule, the “LDL phospholipids, percent control ± standard deviation” value ([3]; LDL, column 4) was 125 ± 7 PERCENT CONTROL, the “LDL protein, percent control ± standard deviation” value ([3]; LDL, column 5) was 92 ± 8 PERCENT CONTROL and the “VLDL cholesterol, percent control ± standard deviation” value ([3]; VLDL, column 1) was 30 ± 5 PERCENT CONTROL. The “VLDL triglyceride, percent control ± standard deviation” value ([3]; VLDL, column 2) was 134 ± 10 PERCENT CONTROL, the “VLDL neutral lipids, percent control ± standard deviation” value ([3]; VLDL, column 3) was 81 ± 3 PERCENT CONTROL and the “VLDL phospholipids, percent control ± standard deviation” value ([3]; VLDL, column 4) was 91 ± 6 PERCENT CONTROL. The “VLDL protein, percent control ± standard deviation” value ([3]; VLDL, column 5) was 103 ± 7 PERCENT CONTROL, the “Chylomicrons cholesterol, percent control ± standard deviation” value ([3]; chylomicrons, column 1) was 82 ± 6 PERCENT CONTROL and the “Chylomicrons triglyceride, percent control ± standard deviation” value ([3]; chylomicrons, column 2) was 85 ± 7 PERCENT CONTROL. For the same molecule, the “Chylomicrons neutral lipids, percent control ± standard deviation” value ([3]; chylomicrons, column 3) was 84 ± 8 PERCENT CONTROL, the “Chylomicrons phospholipids, percent control ± standard deviation” value ([3]; chylomicrons, column 4) was 92 ± 7 PERCENT CONTROL and the “Chylomicrons protein, percent control ± standard deviation” value ([3]; chylomicrons, column 5) was 102 ± 6 PERCENT CONTROL. For the same molecule, the “Cholesterol Day 9, % control ± standard deviation” value ([4]; 10 mg/kg/day ip) was 88 ± 5 % CONTROL, the “Cholesterol Day 16, % control ± standard deviation” value ([4]; 10 mg/kg/day ip) was 76 ± 7 % CONTROL and the “Triglyceride Day 16, % control ± standard deviation” value ([4]; 10 mg/kg/day ip) was 67 ± 5 % CONTROL. For the same molecule, the “Cholesterol Day 9, % control ± standard deviation” value ([4]; 20 mg/kg/day ip) was 53 ± 4 % CONTROL, the “Cholesterol Day 16, % control ± standard deviation” value ([4]; 20 mg/kg/day ip) was 49 ± 8 % CONTROL and the “Triglyceride Day 16, % control ± standard deviation” value ([4]; 20 mg/kg/day ip) was 57 ± 4 % CONTROL. For the same molecule, the “Cholesterol Day 9, % control ± standard deviation” value ([4]; 40 mg/kg/day ip) was 71 ± 7 % CONTROL, the “Cholesterol Day 16, % control ± standard deviation” value ([4]; 40 mg/kg/day ip) was 60 ± 6 % CONTROL and the “Triglyceride Day 16, % control ± standard deviation” value ([4]; 40 mg/kg/day ip) was 44 ± 3 % CONTROL. The “Cholesterol Day 9, % control ± standard deviation” value ([4]; 60 mg/kg/day ip) was 76 ± 8 % CONTROL, the “Cholesterol Day 16, % control ± standard deviation” value ([4]; 60 mg/kg/day ip) was 55 ± 5 % CONTROL and the “Triglyceride Day 16, % control ± standard deviation” value ([4]; 60 mg/kg/day ip) was 49 ± 5 % CONTROL. For the same molecule, the “Cholesterol Day 7, % control ± standard deviation” value ([5]; Day 7) was 75 ± 5 % CONTROL, the “Triglyceride Day 7, % control ± standard deviation” value ([5]; Day 7) was 66 ± 6 % CONTROL and the “Cholesterol Day 14, % control ± standard deviation” value ([5]; Day 14) was 68 ± 8 % CONTROL. The “Triglyceride Day 14, % control ± standard deviation” value ([5]; Day 14) was 64 ± 5 % CONTROL.
